# According to patent publication US3987189A, “Anti-inflammatory composition and method containing cyclic 2-furfural-acetals” (Henkel & Cie G.m.b.H., priority 1973, dated 1976):
# Where two headings read alike, the source gives them in different places.
# Legend:
# [1] = Orienting toxicity test, LD 50; conditions: in vivo
# Description: In the following experiments listed below the cyclic 2-furfural-acetals to be used according to the invention were tested for their anti-inflammatoryproperties. First an orienting experiment was carried out to determine their toxicity, in order to be able to determine the test dosages for the further experiments.
# [2] = UV-spectrum, absorption maxima; assay type: physicochemical
# Text: In addition, the absorption maxima of the test substances in the ultraviolet region are given in the following Table I. Since with some of the test substances the absorption maxima lie conveniently in the ultraviolet region producing erythema, which extends from 280 to 320 mμ these, besides their inflammation-preventing action as sunburn control substances, show themselves simultaneously as useful means for protection from the sun.
# [3] = test system: carrageenin induced edema of the rats paw; experiment: Rat's paw test with carrageenin induced edema (amputation method); assay type: in vivo; conditions: 30 minutes before carrageenin, paws weighed 3 hours after carrageenin, read-out: Rat's paw test with carrageenin induced edema, checking (% inhibition)
# Description: As a determination of the suitability of the compounds for preventing the inflammation caused by sunburn, a variation of the rats paw test was used, namely the so-called amputation method was used, which is described by C. H. Winter in the Journal of Pharmacology and Experimental Therapeutics 141, p.369 (1963). In the experiments, Carrageenin is used as the substance causing inflammation.
# While only the Carrageenin solution was administered to the control animals, the test animals were given the different test substances by injection or by administration per os in the amount given in Table I below, 30 minutes before its injection with the Carrageenin solution. The test animals were killed 3 hours after the injection of the carrageenin solution causing the inflammation, and the weight of the paws was determined. The inhibiting of the development of the edema of the rats paws after the subplantar injection of the compound checking inflammation was used as an index of the degree of activity and was expressed in % inhibition.
# On the basis of general practice, the results of the rats paw test serve as a base for the evaluation of a compound as a sunburn control agent.
Compound,LD50 [1],UV-spectrum λ-max [2],UV-spectrum logε at λ-max [2],"inhibition in vivo at 500 mg/kg ([3]; po, 500 mgm/kg p.o.)",also measured
"CC1(C)OC(c2ccc([N+](=O)[O-])o2)OC1(C)C [Compound D, 2-(5'-nitrofuryl-2')-4,4,5,5-tetramethyl-1,3-dioxolane]",810 mg/kg,303 mμ,4.01,16.5%,–
"CC(C)C1OC(c2ccc([N+](=O)[O-])o2)OCC1(C)C (centres unmarked) [Compound Q, 2-(5'-nitrofuryl-2')-4-isopropyl-5,5-dimethyl-1,3-dioxane]",1750 mg/kg,301 mμ,4.07,–,"inhibition in vivo at 750 mg/kg ([3]; po, 750 mgm/kg p.o.): 34.1%"
"CCCCCCCCCCC1COC(c2ccc([N+](=O)[O-])o2)O1 (centres unmarked) [Compound V, 2-(5'-nitrofuryl-2')-4-n-decyl-1,3-dioxolane]",1000 mg/kg,–,–,–,"inhibition in vivo at 1000 mg/kg ([3]; po, 1000 mgm/kg p.o.): 18.3%"
"c1coc(C2OC3CCCCC3O2)c1 (centres unmarked) [Compound Y, 2-(Furyl-2')-4,5-tetramethylene-1,3-dioxolane]",300 mg/kg,–,–,–,"inhibition in vivo at 250 mg/kg ([3]; po, 250 mgm/kg p.o.): 32.3%"
"CC1CC(C)(C)OC(c2ccc([N+](=O)[O-])o2)O1 (centres unmarked) [Compound L, 2-(5'-nitrofuryl-2')-4,4,6-trimethyl-1,3-dioxane]",1130 mg/kg,304 mμ,4.01,21.9%,–
"Cc1ccc(C2OCC(C)(C)C(C(C)C)O2)o1 (centres unmarked) [Compound H, 2-(5'-methylfuryl-2')-4-isopropyl-5,5-dimethyl-1,3-dioxane]",1000 mg/kg,300 mμ,2.08,–,"inhibition in vivo at 1000 mg/kg ([3]; po, 1000 mgm/kg p.o.): 50%"
"CC1OC(c2ccco2)OC1C (centres unmarked) [Compound G, 2-(furyl-2')-4,5-dimethyl-1,3-dioxolane]",300 mg/kg,300 mμ,2.13,–,"inhibition in vivo at 250 mg/kg ([3]; po, 250 mgm/kg p.o.): 14.5%"
"O=[N+]([O-])c1ccc(C2OC3CCCCC3O2)o1 (centres unmarked) [Compound E, 2-(5'-nitrofuryl-2')-4,5-tetramethylene-1,3-dioxolane]",1000 mg/kg,305 mμ,4.01,17.7%,–
"CC1CCOC(c2ccc([N+](=O)[O-])o2)O1 (centres unmarked) [Compound X, 2-(5'-nitrofuryl-2')-4-methyl-1,3-dioxane]",750 mg/kg,303 mμ,3.87,12.1%,–
"CCCCC1COC(c2ccc([N+](=O)[O-])o2)O1 (centres unmarked) [Compound S, 2-(5'-nitrofuryl-2')-4-n-butyl-1,3-dioxolane]",810 mg/kg,–,–,–,"inhibition in vivo at 500 mg/kg ([3]; ip, 500 mgm/kg i.p.): 10.6%"
"CCCC1(C)COC(c2ccc([N+](=O)[O-])o2)OC1 (centres unmarked) [Compound C, 2-(5'-nitrofuryl-2')-5-methyl-5-propyl-1,3-dioxane]",300 mg/kg,302 mμ,3.98,–,"inhibition in vivo at 250 mg/kg ([3]; po, 250 mgm/kg p.o.): 16.5%"
"CC(C)C1OC(c2ccco2)OCC1(C)C (centres unmarked) [Compound F, 2-(furyl-2')-4-isopropyl-5,5-dimethyl-1,3-dioxane]",300 mg/kg,300 mμ,2.35,–,"inhibition in vivo at 250 mg/kg ([3]; po, 250 mgm/kg p.o.): 48.4%"
"Cc1ccc(C2OC(C)C(C)O2)o1 (centres unmarked) [Compound J, 2-(5'-methylfuryl-2')-4,5-dimethyl-1,3-dioxolane]",1000 mg/kg,300 mμ,1.96,–,"inhibition in vivo at 1000 mg/kg ([3]; po, 1000 mgm/kg p.o.): 48.4%"
"O=[N+]([O-])c1ccc(C2OCCO2)o1 [Compound A, 2-(5'-Nitrofuryl-2')-1,3-dioxolane]",810 mg/kg,302 mμ,4.02,16.2%,–
"CC1COC(c2ccc([N+](=O)[O-])o2)O1 (centres unmarked) [Compound R, 2-(5'-nitrofuryl-2')-4-methyl-1,3-dioxolane]",750 mg/kg,303 mμ,3.84,–,"inhibition in vivo at 50 mg/kg ([3]; ip, 50 mgm/kg i.p.): 36.6%"
"CC1OC(c2ccc([N+](=O)[O-])o2)OC(C)C1C (centres unmarked) [Compound K, 2-(5'-Nitrofuryl-2')-4,5,6-trimethyl-1,3-dioxane]",690 mg/kg,303 mμ,3.76,–,"inhibition in vivo at 250 mg/kg ([3]; po, 250 mgm/kg p.o.): 30.8%"
"O=[N+]([O-])c1ccc(C2OCCCCO2)o1 [Compound B, 2-(5'-nitrofuryl-2')-1,3-dioxepane]",1750 mg/kg,–,–,12.3%,–
"CCCCCCC1COC(c2ccc([N+](=O)[O-])o2)O1 (centres unmarked) [Compound T, 2-(5'-nitrofuryl-2')-4-n-hexyl-1,3-dioxolane]",1000 mg/kg,–,–,–,"inhibition in vivo at 1000 mg/kg ([3]; po, 1000 mgm/kg p.o.): 12.8%"
"CCCCCCCCC1COC(c2ccc([N+](=O)[O-])o2)O1 (centres unmarked) [Compound U, 2-(5'-nitrofuryl-2')-4-n-octyl-1,3-dioxolane]",5000 mg/kg,–,–,–,"inhibition in vivo at 250 mg/kg ([3]; ip, 250 mgm/kg i.p.): 17%"
"CCCCCCCCCCCCCCCCC1COC(c2ccc([N+](=O)[O-])o2)O1 (centres unmarked) [Compound O, 2-(5'-nitrofuryl-2')-4-hexadecyl-1,3-dioxolane]",2500 mg/kg,–,–,–,"inhibition in vivo at 250 mg/kg ([3]; ip, 250 mgm/kg i.p.): 29.6%"
"CCCCCCCCCCCCCCC1COC(c2ccc([N+](=O)[O-])o2)O1 (centres unmarked) [Compound N, 2-(5'-nitrofuryl-2')-4-tetradecyl-1,3-dioxolane]",1000 mg/kg,–,–,–,"inhibition in vivo at 1000 mg/kg ([3]; ip, 1000 mgm/kg i.p.): 10.5%"
"CCCCCCCCCCCCC1COC(c2ccc([N+](=O)[O-])o2)O1 (centres unmarked) [Compound M, 2-(5'-nitrofuryl-2')-4-dodecyl-1,3-dioxolane]",1000 mg/kg,–,–,–,"inhibition in vivo at 1000 mg/kg ([3]; ip, 1000 mgm/kg i.p.): 18.3%"
"O=[N+]([O-])c1ccc(C2OCCCO2)o1 [Compound W, 2-(5'-nitrofuryl-2')-1,3-dioxane]",750 mg/kg,303 mμ,3.79,16.9%,–
